Data on 4 molecules can be found in PMC4678293, “Identification of a lead like inhibitor of the hepatitis C virus non-structural NS2 autoprotease” (Antiviral Research, 2015).

“And” between values parts separate entries of the source, which are not always exact repeats. Identical values can stand only once. “Also recorded” adds a separate entry of the source. Like-named read-outs stand apart in the source and are kept apart here.

The target of data set [1] is T1, NS2 autoprotease (NS2-NS3-FLAG, JFH-1 isolate, genotype 2a) (Hepatitis C virus genotype 2a, UniProt Q99IB8).
T1 construct: made in house
Briefly: in vitro NS2 autoprotease assay: recombinant NS2-NS3-FLAG proteolysis, NS3-FLAG product quantified by western blot. The format is biochemical. As to conditions: 16 h. As to the method: NS2-NS3-FLAG (JFH-1 isolate, genotype 2a) was purified, and proteolysis reactions were performed as previously described ([Shaw et al., 2015]). Compounds were added to reactions prior to addition of NS2-NS3-FLAG by dilution from DMSO stocks (final DMSO 0.75%). Reactions were incubated at room temperature for 16 h, terminated by addition of Laemmli buffer and the NS3-FLAG proteolysis product quantified by western blot using M2 anti-FLAG monoclonal antibody (Sigma Aldrich) and IRDye 680RD Donkey anti-Mouse (LI-COR Biosciences) on an Odyssey imager (LI-COR). NS3-FLAG was normalised to DMSO control and a non-linear regression fitted with Prism 6 (GraphPad) to determine 50% effective concentration (EC50).
Firstly, compounds were tested for the ability to block production of a substrate product of the NS2 autoprotease in an in vitro assay. This assay, using a recombinant NS2-NS3-FLAG precursor purified under denaturing conditions, measured NS2 autoprotease activity using quantitative western blot to monitor a proteolysis product (NS3-FLAG) ([Foster et al., 2010], [Shaw et al., 2015], [Tedbury and Harris, 2007]).
On the technique in general: In western blotting, separated proteins are transferred to a membrane and probed.

Data set [2] concerns SGR-feo-NS2-5B(JFH-1) sub-genomic replicon. Briefly: luciferase assay in Huh7.5 cells stably harbouring SGR-feo-NS2-5B(JFH-1). The format is cell-based, Hepatitis C virus. As to conditions: Huh7.5, 48 h. Here is the method: (§1) Selection and maintenance of Huh7.5 cells stably harbouring SGR-feo-NS3-5B ([Wyles et al., 2009], [Wyles et al., 2007]) or SGR-feo-NS2-5B derived from JFH-1 (genotype 2a) and Con1 (genotype 1b) has previously been reported ([Shaw et al., 2015]). Cells were maintained in Dulbecco's modified Eagle's medium (DMEM) supplemented with 10% FBS, 100 IU penicillin ml^−1, 100 μg streptomycin ml^−1, 1% non-essential amino acids and 300 μg/ml G418 in a humidified incubator at 37 °C in 5% CO2. For screening, 2 × 10^4 cells/well were seeded in a 96-well plate in the absence of G418 and compounds were added to 10 μM final concentration by dilution from DMSO stocks. At 72 h, cells were washed in PBS and lysed in 30 μl/well Passive Lysis Buffer (PLB: Promega). Luciferase activity was quantified by automated addition of 40 μl LarI reagent (Promega) and light emission recorded over 6 s using a BMG Labtech Fluostar plate reader. Statistical significance was determined using the Student's t test.
(§2) Firefly luciferase was measured as in Section 2.4. Data was normalised to DMSO controls and EC50/CC50 determined using Prism 6 (GraphPad).
Additionally, compounds were tested for the ability to specifically perturb NS2-dependent HCV genome replication in a cell-based assay. […]

Data set [3] in a line: cell viability by ATPLite in SGR-feo-NS2-5B(JFH-1) harbouring Huh7.5 cells. Format: cell-based. The settings on record: human, Huh7.5 cells harbouring SGR-feo-NS2-5B(JFH-1) replicon. Here is the method: (§3) For cytotoxicity assay, media was removed and cells were incubated in 1 mM thiazolyl blue tetrazolium bromide (MTT) for >2 h. MTT crystals were resuspended in 100 μl DMSO and absorbance at 570 nm quantified using an infinite F50 plate reader (Tecan). Alternatively, cytotoxicity was analysed using the ATPLite kit following the manufacturer's instructions, with light emission quantified using a BMG Labtech Fluostar plate reader.
as §2
(Cellular ATP, detected with luciferase, serves as a proxy for viable cell number.)

The test system of data set [4] is SGR-feo-NS2-5B(Con1) sub-genomic replicon, genotype 1b. Kind of data set: luciferase assay in Huh7.5 cells stably harbouring SGR-feo-NS2-5B(Con1). The settings on record: 10 μM, Huh7.5 stable cells, p = 0.0006. The format is cell-based, Hepatitis C virus. As to the method:
as §1
(§4) Additionally, compounds were tested for the ability to specifically perturb NS2-dependent HCV genome replication in a cell-based assay. Compounds were tested against cells stably harbouring a HCV sub-genomic replicon (SGR) comprising either NS2-5B or NS3-5B with a firefly luciferase-neomycin phosphotransferase reporter ([Shaw et al., 2015], [Wyles et al., 2009], [Wyles et al., 2007]). […]

Data set [5] has as its system SGR-feo-NS3-5B(Con1) sub-genomic replicon. Briefly: luciferase assay in Huh7.5 cells stably harbouring SGR-feo-NS3-5B(Con1), independent of NS2. Format: cell-based, Hepatitis C virus. As to conditions: 10 μM, Huh7.5 stable cells. Here is the method: as §1, §4
Data set [6] has as its system SGR-luc-NS2-5B(JFH-1) sub-genomic replicon. Kind of data set: transient replication assay: SGR-luc-NS2-5B(JFH-1) RNA electroporated into Huh7.5 cells, luciferase. Format: cell-based, Hepatitis C virus. Here is the method: For transient SGR experiments, in vitro transcripts (2 μg) of firefly luciferase-containing SGR were electroporated into 4 × 10^6 Huh7.5 cells ([Blight et al., 2002]) or Huh7 cells at 950 μF and 270 V. 2 × 10^4 cells/well were seeded in a 96 well plate. At 4 h post electroporation (h.p.e.) media was replaced with media containing compounds.
as §2

The nature of data set [7]: cell viability by MTT in Huh7.5 cells electroporated with SGR-luc-NS2-5B(JFH-1). As to conditions: human, Huh7.5 cells electroporated with SGR-luc-NS2-5B(JFH-1); for CC50 at 48 h: MTT, Huh7.5, 48 h.p.e., Fig. 2D, read-out: Cell viability CC50, across experimental repeats. Format: cell-based. Here is the method: as §3, §2
Data set [8] concerns Huh7.5 cells. Described as above. The settings on record: for CC50: MTT, Huh7.5, 48 h.p.e., single experiments in duplicate, read-out: Cell viability CC50, individual experiment. The format is cell-based. Here is the method:
as §3, §2

The subject of data set [9] is Jc1-NLuc (genotype 2a chimeric Jc1, infectious HCV). Kind of data set: HCVcc assay: Jc1-NLuc RNA electroporated into Huh7.5 cells, NanoLuc activity. The format is cell-based, Hepatitis C virus. Here is the method: (§5) For HCVcc experiments, 5 μg of Jc1-NLuc ([Amako et al., 2015]) transcript was electroporated into Huh7.5 cells and treated with compound as described in Section 2.5. Cytotoxicity or NanoLuc (NLuc) activity was measured at 48 h incubation with compound. Cells were lysed as in Section 2.4. Following the addition of 50 μl/well Nano-Glo Luciferase Assay Substrate (Promega) light emission was recorded using a BMG Labtech Fluostar plate reader and data analysed as in Section 2.5.

Data set [10] in a line: cell viability by MTT in Huh7.5 cells electroporated with Jc1-NLuc. The format is cell-based. As to conditions: human, Jc1-NLuc electroporated Huh7.5, 48 h.p.e. As to the method:
as §3, §5

Data set [11] concerns Huh7.5 cells. The description is as above. As to conditions: Jc1-NLuc electroporated Huh7.5, 48 h.p.e.; read-out: Cell viability, MTT CC50, individual experiment. The format is cell-based. As to the method:
as §3, §5

For data set [12], the system named is Huh7.5 cells. Kind of data set: cytotoxicity at 25 μM in Huh7.5 cells, MTT or ATPlite assay. Format: cell-based. As to conditions: 48 h. As to the method: as §3
A general note: Tetrazolium dyes change colour on reduction, which living cells bring about.

A further data set concerns NS5A. Briefly: western blot for NS5A in lysates of SGR-luc-NS2-5B(JFH-1) electroporated Huh7.5 cells. Format: cell-based, Hepatitis C virus. The settings on record: 52 h.p.e. Here is the method: 2 × 10^6 cells were seeded in a 10 cm dish and incubated as indicated. Cells were washed in PBS and lysed in 100 μl PLB. Clarified lysates were analysed by 15% SDS-PAGE and western blot. Anti-GAPDH (Abcam) (1:20,000) or anti-NS5A ([Macdonald et al., 2003]) (1:5000) were followed by IRDye 680RD Donkey anti-Mouse or IRDye 800CW Donkey anti-Rabbit (LI-COR BioSciences) (1:10,000) respectively. Imaging was performed using an Odyssey Imager (LI-COR).

[13] abbreviates: 10-point dose response, in vitro proteolysis, * mean ± SD of three experimental repeats, read-out: JFH1 NS2-3 EC50.
The mark [14] stands for this setting: Hepatitis C virus, Huh7.5, transient SGR-luc-NS2-5B(JFH-1), Huh7.5, 4-48 h.p.e., Fig. 2D, read-out: NS2-5B SGR EC50, mean ± SD across experimental repeats.
Where [15] appears, read: transient SGR-luc-NS2-5B(JFH-1), Huh7.5, 48 h.p.e., single experiments in duplicate, read-out: NS2-5B SGR EC50, individual experiment.

T1 sequence (Q99IB8 908-1210): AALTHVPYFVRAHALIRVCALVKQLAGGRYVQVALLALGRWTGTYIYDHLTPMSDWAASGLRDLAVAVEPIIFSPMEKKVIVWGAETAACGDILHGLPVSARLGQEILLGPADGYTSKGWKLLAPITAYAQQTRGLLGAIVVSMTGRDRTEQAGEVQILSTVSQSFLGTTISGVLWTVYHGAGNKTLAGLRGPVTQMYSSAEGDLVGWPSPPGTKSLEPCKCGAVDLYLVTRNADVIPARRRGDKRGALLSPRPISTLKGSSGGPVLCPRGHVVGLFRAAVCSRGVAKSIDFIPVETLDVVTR

For `CC1(C(=O)N2CCC3(C=Cc4ccccc43)CC2)CCCCC1` [160–1, 1-[(1-Methylcyclohexyl)carbonyl]-spiro[indene-1,4’-piperidine]], in [1] (setting [13]), the EC50 is 43 ± 0.5 µM.

As for `O=C(C1CCCCC1)N1CCC2(C=Cc3ccccc32)CC1` [160–2, 1’-[(Cyclohexyl)carbonyl]-spiro[indene-1,4’-piperidine]], the melting point is 134 to 135 °C. Further, in data set [1] (setting [13]), the EC50 amounted to 68.4 ± 5.6 µM.

Turning to `CC1(C(=O)N2CCC3(CC2)c2ccccc2[C@@H](N)[C@@H]3O)CCCCC1` [Compound 160, (2R, 3R)-3-amino-1′-[(1-methylcyclohexyl)carbonyl]-2,3,dihydrospiro[indene-1,4′-piperidine]-2-ol], the EC50 is 44.6 ± 6.2 µM in data set [1] (setting [13]); 39 µM in data set [1] (Fig. 1B dose response, read-out: EC50, reduction of NS3-FLAG product in the in vitro NS2 autoprotease assay); 43.4 µM in [2] (Hepatitis C virus, read-out: ff Luc EC50, SGR-feo-NS2-5B(JFH-1) stable cells, Huh7.5, 48 h, one representative experiment); 43.4 µM in data set [2] (read-out: ff Luc EC50, SGR-feo-NS2-5B(JFH-1) stable cells, one representative experiment); 12 ± 6.4 µM in data set [6] (setting [14]); 20.2 µM and 13.6 µM and 5.65 µM and 8.46 µM in [6] (setting [15]). In addition, the EC50 was 17.3 ± 8.1 µM in [9] (Hepatitis C virus, Huh7.5, read-out: Jc1-NLuc EC50, mean, Huh7.5, treated 4 to 48 h.p.e., mean ± SD of three experiments); 24.4 µM and 18.9 µM and 8.54 µM in data set [9] (read-out: Jc1-NLuc EC50, individual experiment, Huh7.5, 48 h.p.e., three biological replicates). Also, the CC50 at 48 h was over 100 µM in [3]; over 100 µM in data set [7]; 110 ± 40 µM in data set [10] (mean ± SD of three experiments, read-out: Cell viability, MTT CC50, mean); 93 µM in [10] (read-out: Cell viability, MTT CC50, individual experiment). The “luciferase activity relative to DMSO control, SGR-feo-NS2-5B(Con1)” value in [4] was “significantly reduced; also recorded: reduces luciferase activity”. Moreover, in data set [5], the “luciferase activity relative to DMSO control, SGR-feo-NS3-5B(Con1)” value was “no effect; also recorded: without affecting luciferase activity”. In addition, in [6] (160 at 25 μM, added 4 h.p.e., read every 4 h for 48 h), the “luciferase activity time course relative to DMSO control” value is “reduction in luciferase activity and a lag in detectable luciferase activity”. The molecule further returned a selectivity index in data set [6] (CC50/EC50, transient SGR, no accurate CC50) of over 5. The viability at 300 µM in data set [7] (300 μM, read-out: cell viability at maximal attainable concentration) amounted to 40%. Moreover, the “concentration at which modest cytotoxic effects were observed” value in the data set with Huh7.5 cells [8] was at least 95 µM. The CC50 is over 100 µM in the data set with Huh7.5 cells [8]; 81.2 µM and 155 µM with Huh7.5 cells [11]. Also, in the data set with Huh7.5 cells [12], the “cytotoxicity at 25 μM” value is reported as “no observed cytotoxicity”. Moreover, the “NS5A relative to DMSO control, western blot” value in the data set with NS5A (160 at 25 μM) was “comparable reduction in NS5A”.

Regarding `CCC[C@H](NC(=O)[C@@H]1[C@H]2CCC[C@H]2CN1C(=O)[C@@H](NC(=O)[C@@H](NC(=O)c1cnccn1)C1CCCCC1)C(C)(C)C)C(=O)C(=O)NC1CC1` [Telaprevir, reference compound], the EC50 in data set [6] (Hepatitis C virus, Huh7.5, 48 h, transient SGR-luc-NS2-5B(JFH-1), Huh7.5, 48 h.p.e., single experiments in duplicate, read-out: NS2-5B SGR EC50, individual experiment) was determined as 0.206 µM; in [6] (setting [14]), 0.176 ± 0.023 µM; in data set [6] (setting [15]), 0.146 µM. For the same molecule, the “luciferase activity time course” value in [6] (Telaprevir at 100 nM, compared with 160 at 25 μM) is “comparable profile”. Also, the CC50 at 48 h in data set [7] was over 31.6 µM. In addition, in the data set on Huh7.5 cells [8], the CC50 was over 31.6 µM. For the same molecule, the “NS5A relative to DMSO control, western blot” value with NS5A (Telaprevir at 100 nM) was “comparable reduction in NS5A”.

Broadly, the melting point is the temperature, or range, at which the solid turns liquid. For orientation: CC50 means the concentration giving 50% cytotoxicity.
